From publication PMC8533219, “Evaluation of the Antioxidant, Antidiabetic, and Antiplasmodial Activities of Xanthones Isolated from Garcinia forbesii and Their In Silico Studies” (Biomedicines, 2021)
Several values for one entry are separate records, joined by “and”; a condition that tells them apart may be missing. Equal entries are not always repeated. Where two headings read alike, the source gives them in different places.

Columns and labels:
[1] = set-up: method as in PMID 33711431; details: read-out: DPPH scavenging IC50; cited from earlier work
[2] = biological target: rat intestinal α-glucosidase; assay: Rat intestinal α-glucosidase inhibitory activity; assay type: biochemical; details: IC50 > 1000 μM = inactive
Experimental: The inhibitory activity of rat intestinal α-glucosidase was determined according to previously reported method with slight modifications. This procedure was performed by classifying four mixtures in different groups. The mixture (1) labelled “Blank of enzyme reaction” contained the mixture and DMSO (10 µL), sodium phosphate buffer (50 µL), glucose kit (80 µL), enzyme (20 µL) and substrate (20 µL maltose, sucrose 20 µL). A 10 µL of sample and samples with various concentrations of compounds was added to the well Plates (3) and (4). A 50 µL of sodium phosphate buffer (pH 6.9) was then added to well Plates (1) and (3), and a 30 µL of the buffer was added to well Plates (2) and (4), respectively. The substrate (maltose, 20 µL; sucrose 20 µL) was then added to the Plates (2) and (4). A glucose kit (80 µL each) and the enzyme (20 µL) were added to all plates and were incubated for 10 min for maltose and 40 min for sucrose. Finally, the absorbance was then measured at λ = 520 nm using a microplate reader (BioTek ELx800TM, BioTek Instruments, Inc., Winooski, VT, USA).

[3] = Ferric reducing-antioxidant power (FRAP) assay; details: for FRAP: reduction power
Experimental: The FRAP assay was determined according to the described method using 300 mM acetate buffer, 40 mM HCl, 10 mM (2,4,6 Tris(2-pyridyl)-s-triazine (TPTZ)), 20 mM FeCl3·6H2O. For standard curve comparison, a 10:1:1 (acetate buffer: TPTZ: H2O) and sample ratio 10:1:1 (acetate buffer: TPTZ: FeCl3·6H2O) were constructed. The standard curve was prepared using various concentrations of FeSO4·7H2O. The reaction mixture was incubated at 37 °C for 30 min followed by measurement of the absorbance at 593 nm. In this test, the reduction capacity of the tested compound calculated concerning the reaction signal given by the Fe^2+ solution. The FRAP value was expressed as µM Fe^2+/g ((Frap value of sample (µM) = abs (sample) × FRAP value of std (µM)/abs (std).

Plasmodium falciparum = details: read-out: IC50 against Plasmodium falciparum; cited from earlier work
P. falciparum strain 3D7 = assay: In vitro antiplasmodial assay (pLDH method); assay type: cell-based; details: Plasmodium falciparum; for inhibition at 10 µg/mL: read-out: % Inhibition (10 μg/mL)
Experimental: The parasites used in this test were synchronized (Ring stage) with ± 0.3% parasitemia (2% hematocrit). […] The well plates were put in the chamber with mix gas atmosphere (O2 5%, CO2 5% and N2 90%) and incubated for 72 h at 37 °C. After that, the plate was harvested and stored at −30 °C. After 24 h, the pLDH assay was performed by reading the absorbance at 650 nm using a SpectraMax Paradigm® Multi-Mode microplate reader.

[4] = DPPH radical scavenging assay; details: for IC50: IC50 > 1000 μM = inactive
Experimental: DPPH (1,1-diphenyl-2-picrylhydrazyl) was used for the antioxidant test using quercetin and gallic acid as controls. The compounds were diluted at concentrations of 159.73, 79.87, 39.93, 19.97, 9.98 µg/mL. A total 1 mL of DPPH 6 × 10^−5 M solution, complete with 33 µL of the compound, was incubated at 37 °C for 20 min. […] The radical inhibitory activity was calculated using the equation [(Ab-As)/Ab] × 100%.

[5] = ABTS radical scavenging assay; details: for IC50: IC50 > 1000 μM = inactive
Experimental: The antioxidant activity was also determined by free radical ABTS (2,2″-azinobis (3-ethyl benzothiazoline-6-sulfonic acid) according to the reported procedure. In this test, 7 mM ABTS solution was prepared and mixed with a buffer solution of potassium peroxydisulfate, incubated for 16 h, and protected from light. A total of 10 μL of the sample and 1 mL of the ABTS was incubated for 4 min and measured at a wavelength of 734 nm. This experiment was performed triplo using quercetin and gallic acid as controls. The ABTS inhibitory activity was calculated by the equation [(Ab-As)/Ab] × 100%.

[6] = biological target: T1, Porcine pancreatic α-amylase (Sus scrofa, UniProt P00690); assay: α-Amylase inhibitory activity; assay type: biochemical; details: read-out: α-Amylase Starch IC50
T1 sequence (P00690 16-511): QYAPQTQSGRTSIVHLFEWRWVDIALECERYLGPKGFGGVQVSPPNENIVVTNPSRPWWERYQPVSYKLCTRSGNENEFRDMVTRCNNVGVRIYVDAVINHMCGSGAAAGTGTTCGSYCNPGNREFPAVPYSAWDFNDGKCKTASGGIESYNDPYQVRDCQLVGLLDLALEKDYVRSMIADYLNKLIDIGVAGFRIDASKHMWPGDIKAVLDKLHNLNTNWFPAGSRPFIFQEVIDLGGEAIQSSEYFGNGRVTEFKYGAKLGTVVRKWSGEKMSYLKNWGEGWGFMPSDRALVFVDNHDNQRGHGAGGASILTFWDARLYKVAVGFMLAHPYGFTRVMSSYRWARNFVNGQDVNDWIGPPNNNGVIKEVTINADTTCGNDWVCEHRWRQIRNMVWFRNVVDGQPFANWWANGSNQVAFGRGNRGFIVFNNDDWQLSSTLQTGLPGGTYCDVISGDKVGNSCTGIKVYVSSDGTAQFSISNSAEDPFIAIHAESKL
Experimental: The modified α-amylase enzyme inhibition test was conducted for antidiabetic activity evaluation. A total of 10 mg sample was dissolved in 1 mL DMSO and 0.1 M phosphate buffer and 5 mg α-amylase solution (Porcine pancreatic α-amylase) in 1 mL phosphate buffer pH 6.9 was added. A 100 mg of potato starch (substrate) was heated in 5 mL of 0.1 M phosphate buffer for 5 min and cooled to room temperature. Then, 20 µL of the sample and 50 µL of substrate were mixed into 30 µL of phosphate buffer. The mixture was pre-incubated for 5 min followed by the addition of 20 µL of α-amylase enzyme and then incubation at 37 °C for 15 min. The color development was performed by adding 50 µL of 1M HCl and 50 µL of 10% iodine solution. Finally, the absorbance was measured at a wavelength of 650 nm.

α-glucosidase = details: cited from earlier work
[7] = substrate maltose, read-out: α-Glucosidase Maltose IC50
[8] = substrate sucrose, read-out: α-Glucosidase Sucrose IC50
[9] = P. falciparum 3D7, 10 μg/mL, 72 h
[10] = P. falciparum 3D7, 72 h, read-out: IC50

| Compound | IC50 [2, 7] [µM] | IC50 [2, 8] [µM] | FRAP [3] | IC50 [4] [µM] | IC50 [5] [µM] | IC50 [6] [µM] | inhibition at 10 µg/mL (P. falciparum strain 3D7; [9]) [%] | DPPH % Inhibition (159.7 μg/mL) [4] [%] | ABTS % Inhibition (99 μg/mL) [5] [%] | other results |
| --- | --- | --- | --- | --- | --- | --- | --- | --- | --- | --- |
| O=c1c2cc(O)c(O)cc2oc2cc(O)cc(O)c12 [1,3,6,7-tetrahydroxyxanthone] |  |  |  |  |  |  |  |  |  | IC50 [1]: 28.4 µM |
| C[C@H]1O[C@H](O[C@H]2[C@H](O)[C@@H](O)[C@@H](O[C@H]3[C@H](O)[C@@H](O)C(O)O[C@@H]3CO)O[C@@H]2CO)[C@H](O)[C@@H](O)[C@@H]1N[C@H]1C=C(CO)[C@@H](O)[C@H](O)[C@H]1O (stereo partly drawn) [Acarbose, reference compound] | 3.4 ± 0.27 | 4.6 ± 0.51 |  |  |  |  |  |  |  |  |
| O=C1O[C@H]([C@@H](O)CO)C(O)=C1O [Ascorbic acid, reference compound] |  |  | 30.6 ± 0.27 µM Fe^2+/g |  |  |  |  |  |  | FRAP ([3]; listed as ascorbic acid): 30.6 µM Fe^2+/g; IC50 [1]: 48 µM |
| CCN(CC)CCCC(C)Nc1ccnc2cc(Cl)ccc12 (stereo not drawn) [Chloroquine, reference compound] |  |  |  |  |  |  |  |  |  | IC50 (Plasmodium falciparum): 0.3 µM; IC50 (P. falciparum strain 3D7; 3D7, 72 h): 0.006 ± 0.01 µM; inhibition at 10 µg/mL (P. falciparum strain 3D7; 3D7, 72 h): 98.8 ± 0.25% |
| COc1cc(C)c2c(=O)c3c(O)cc(OC)cc3oc2c1 [Compound 1, lichexanthone] | > 1000 | > 1000 | 5.7 ± 0.57 µM Fe^2+/g | > 1000 | > 1000 | > 1000 | < 10 |  |  | α-Glucosidase Maltose IC50 ([2]; substrate maltose): inactive; α-Glucosidase Sucrose IC50 ([2]; substrate sucrose): inactive |
| C=CC(C)(C)c1cc(O)c(O)c2c(=O)c3cc4c(c(O)c3oc12)OC(C)(C)C=C4 [Compound 2, subelliptenone H] |  | 43.8 ± 1.51 | 166.3 µM Fe^2+/g and 166.3 ± 1.47 µM Fe^2+/g | 19.4 ± 0.15 | 2.7 ± 0.05 | 41.3 ± 1.24 | 86.8 ± 0.33 | 95.29 ± 0.05 | 97.29 ± 0.04 | IC50 (P. falciparum strain 3D7; [10]): 3.3 ± 0.04 µM |
| C=CC(C)(C)c1cc(O)c2oc3c(O)cccc3c(=O)c2c1O [Compound 3, 12b-hydroxy-des-D-garcigerrin A] | 109 ± 1.31 | 79.6 ± 2.01 | 203.9 ± 1.19 µM Fe^2+/g | 18.9 ± 0.1 | 0.05 ± 0.01 | 28.7 ± 0.35 | 87.9 ± 0.23 | 96.83 ± 0.03 | 98.31 ± 0.05 | Iron reducing power, fold greater than ascorbic acid ([3]; relative to ascorbic acid): approximately 6 fold; ABTS IC50, fold lower than quercetin ([5]; relative to quercetin): 4 fold; IC50 (P. falciparum strain 3D7; [10]): 5 ± 0.04 µM |
| C=CC(C)(C)c1cc(O)c2oc3c4c(ccc3c(=O)c2c1O)C=CC(C)(C)O4 [Compound 4, garciniaxanthone B] | 139.4 ± 1.21 | 75.9 ± 2.11 | 192.7 µM Fe^2+/g and 192.7 ± 0.77 µM Fe^2+/g | 14.1 ± 0.07 | 7.9 ± 0.01 | 10.8 ± 0.04 | < 10 | 95.38 ± 0.08 | 96.15 ± 0.01 |  |
| C=CC(C)(C)c1cc(O)c2oc3c4c(ccc3c(=O)c2c1O)[C@H](O)[C@H](O)C(C)(C)O4 [Compound 5, garcigerin A] | 91 ± 1.14 | 37.4 ± 1.2 | 187.8 µM Fe^2+/g and 187.8 ± 1.36 µM Fe^2+/g | 20.4 ± 0.22 | 6.5 ± 0.02 | 18.7 ± 0.54 | < 10 | 96.60 ± 0.05 | 97.40 ± 0.03 |  |
| O=C(O)c1cc(O)c(O)c(O)c1 [Gallic acid, reference compound] |  |  |  | 3 ± 0.01 | 0.7 ± 0.01 |  |  | 97.21± 0.01 | 96.30 ± 0.01 |  |
| O=c1c(O)c(-c2ccc(O)c(O)c2)oc2cc(O)cc(O)c12 [Quercetin, reference compound] |  |  |  | 4.1 ± 0.01 | 0.17 ± 0.01 |  |  | 96.34 ± 0.01 | 97.58 ± 0.01 |  |
| CC(C)=CCc1c(O)cc2oc3c(CC=C(C)C)c(O)c(O)c(CC=C(C)C)c3c(=O)c2c1O [garcinone E] |  |  |  |  |  |  |  |  |  | IC50 [1]: 63.1 µM |
| CC(C)=CCC/C(C)=C/Cc1c(O)c(O)cc2oc3cc(O)c(CC=C(C)C)c(O)c3c(=O)c12 [norcowanin] |  |  |  |  |  |  |  |  |  | IC50 (α-glucosidase): 1.7 µM |
| garcinoxanthones SV |  |  |  |  |  |  |  |  |  | IC50 [1]: 68.5 µM |
| subelliptenone F |  |  |  |  |  |  |  |  |  | IC50 (α-glucosidase): 4.1 µM |
